Results taken from ChEMBL document CHEMBL2390909, “2-Arylpaullones are selective antitrypanosomal agents” (Eur J Med Chem, 2013).

What was measured:
[1] = Selectivity index, ratio of GI50 for human THP1 macrophages to GI50 for blood stage of Trypanosoma brucei rhodesiense STIB 900
[2] = Cytotoxicity against human THP1 macrophages after 48 hrs by Alamar Blue assay; assay type: cell-based; settings: THP-1 macrophages
[3] = system: Trypanosoma brucei rhodesiense; experiment: Antitrypanosomal activity against blood stage of Trypanosoma brucei rhodesiense STIB 900 (S704) Tanzania after 70 hrs by Alamar Blue assay; assay type: functional; settings: STIB 900, 70 h

GI50 [3]	Compound	RatioGI50 [1]	GI50 at 48 h [2]
0.61 µM	CC(C)(C)c1ccc2[nH]c3c(c2c1)CC(=O)Nc1ccc(C(=O)/C=C/c2ccccc2)cc1-3	>163.9	> 100 µM
0.72 µM	COc1ccc(-c2ccc3c(c2)-c2[nH]c4ccc(C(C)(C)C)cc4c2CC(=O)N3)cc1	>138.9	> 100 µM
1.6 µM	COc1cccc(-c2ccc3c(c2)-c2[nH]c4ccc(C(C)(C)C)cc4c2CC(=O)N3)c1	>62.5	> 100 µM
2.3 µM	CN(C)c1cccc(-c2ccc3c(c2)-c2[nH]c4ccc(C(C)(C)C)cc4c2CC(=O)N3)c1	40.8	93.9 µM
0.76 µM	CC(C)(C)c1ccc2[nH]c3c(c2c1)CC(=O)Nc1ccc(-c2ccc4c(c2)OCO4)cc1-3	>131.6	> 100 µM
0.51 µM	CC(C)(C)c1ccc2[nH]c3c(c2c1)CC(=O)Nc1ccc(-c2ccc(N4CCOCC4)cc2)cc1-3	156.9	80 µM
2.3 µM	CC(C)(C)c1ccc2[nH]c3c(c2c1)CC(=O)Nc1ccc(CCC(=O)c2ccccc2)cc1-3	>88.8	> 100 µM
3.9 µM	CC(C)(C)c1ccc2[nH]c3c(c2c1)CC(=O)Nc1ccc(/C=C/C(=O)N2CCOCC2)cc1-3	3.5	13.7 µM
4.7 µM	CC(C)(C)c1ccc2[nH]c3c(c2c1)CC(=O)Nc1ccc(/C=C/C(=O)N2CCCCC2)cc1-3	1.3	6.2 µM
1.1 µM	CCN(CC)C(=O)/C=C/c1ccc2c(c1)-c1[nH]c3ccc(C(C)(C)C)cc3c1CC(=O)N2	3.7	4.1 µM
3.5 µM	CC(C)(C)c1ccc2[nH]c3c(c2c1)CC(=O)Nc1ccc(/C=C/C(=O)NCc2ccccc2)cc1-3	<1	0.93 µM
24.4 µM	CN1CCN(C(=O)/C=C/c2ccc3c(c2)-c2[nH]c4ccc(C(C)(C)C)cc4c2CC(=O)N3)CC1	<1	17.8 µM
1.5 µM	CC(C)(C)c1ccc2[nH]c3c(c2c1)CC(=O)Nc1ccc(/C=C/C(=O)Nc2ccccc2)cc1-3	<1	0.34 µM
1.6 µM	CC(C)(C)c1ccc2[nH]c3c(c2c1)CC(=O)Nc1ccc(/C=C/C(=O)Nc2cccc(Cl)c2)cc1-3	<1	0.85 µM
2.5 µM	CC(C)(C)c1ccc2[nH]c3c(c2c1)CC(=O)Nc1ccc(/C=C/C(=O)Nc2ccc(Cl)cc2)cc1-3	<1	0.47 µM
1.7 µM	Cc1ccc(NC(=O)/C=C/c2ccc3c(c2)-c2[nH]c4ccc(C(C)(C)C)cc4c2CC(=O)N3)cc1	<1	1.3 µM

GI50 [3]	Compound	RatioGI50 [1]	GI50 at 48 h [2]
1.5 µM	COc1ccc(NC(=O)/C=C/c2ccc3c(c2)-c2[nH]c4ccc(C(C)(C)C)cc4c2CC(=O)N3)cc1	<1	0.36 µM
1.8 µM	CC(C)(C)c1ccc2[nH]c3c(c2c1)CC(=O)Nc1ccc(-c2ccccc2)cc1-3	>55.6	> 100 µM
1.7 µM	COCCc1ccc(OCc2cccc(-c3ccc4c(c3)-c3[nH]c5ccc(C(C)(C)C)cc5c3CC(=O)N4)c2)cc1	7.6	12.9 µM
2.6 µM	CC(C)(C)c1ccc2[nH]c3c(c2c1)CC(=O)Nc1ccc(-c2ccc(C(F)(F)F)cc2)cc1-3	21.2	55.1 µM
3 µM	CC(C)(C)c1ccc2[nH]c3c(c2c1)CC(=O)Nc1ccc(-c2ccc(OC(F)(F)F)cc2)cc1-3	>33.3	> 100 µM
4 µM	CC(C)(C)c1ccc2[nH]c3c(c2c1)CC(=O)Nc1ccc(/C=C/C(=O)c2ccccc2)cc1-3	4.4	17.6 µM
12.2 µM	COc1ccc(C(=O)/C=C/c2ccc3c(c2)-c2[nH]c4ccc(C(C)(C)C)cc4c2CC(=O)N3)cc1	2.7	32.6 µM
18.3 µM	CC(C)(C)c1ccc2[nH]c3c(c2c1)CC(=O)Nc1ccc(/C=C/C(=O)c2ccc(Cl)cc2)cc1-3	2.2	40.8 µM
0.57 µM	CC(C)(C)c1ccc2[nH]c3c(c2c1)CC(=O)Nc1ccc(/C=C/C(=O)c2ccco2)cc1-3	2.3	1.3 µM
9 µM	CC(C)(C)c1ccc2[nH]c3c(c2c1)CC(=O)Nc1ccc(/C=C/C(=O)c2cccnc2)cc1-3	8.7	47.9 µM
2.6 µM	COc1cc(C(=O)/C=C/c2ccc3c(c2)-c2[nH]c4ccc(C(C)(C)C)cc4c2CC(=O)N3)cc(OC)c1OC	5.6	14.7 µM
1.2 µM	COc1ccc(OC)c(C(=O)/C=C/c2ccc3c(c2)-c2[nH]c4ccc(C(C)(C)C)cc4c2CC(=O)N3)c1	1.8	2.2 µM
5.4 µM	COc1ccc(C(=O)/C=C/c2ccc3c(c2)-c2[nH]c4ccc(C(C)(C)C)cc4c2CC(=O)N3)c(OC)c1	5.8	31.4 µM
4.2 µM	COc1ccc(C(=O)/C=C/c2ccc3c(c2)-c2[nH]c4ccc(C(C)(C)C)cc4c2CC(=O)N3)cc1OC	2.3	9.6 µM
1.1 µM	CC(C)(C)c1ccc2[nH]c3c(c2c1)CC(=O)Nc1ccc(/C=C/C(=O)c2cccs2)cc1-3	3.4	3.7 µM
7.4 µM	CC(C)(C)c1ccc2[nH]c3c(c2c1)CC(=O)Nc1ccc(/C=C/C(=O)c2ccc(O)cc2)cc1-3	9.8	72.6 µM
